Results on two compounds are retold here after ChEMBL document CHEMBL3351754, “Rational use of plasma protein and tissue binding data in drug design” (J Med Chem, 2014).

Data set [1] in a line: Fraction unbound in mouse brain.
Data set [2] in a line: Fraction unbound in 100% human serum. The format is ADME, cell-free.

Regarding `CCCC(C)(COC(N)=O)COC(N)=O` [MEPROBAMATE], in data set [1], the fraction unbound (commonly the share of the substance not bound to proteins or other matrix) was found to be 0.76.

As to `O=C(O)[C@H](Oc1cccc(C(F)(F)F)c1)c1ccc(Cl)cc1` [MBX-102 ACID FORM], the fraction unbound in data set [2] is 0.009.
